Literature values as cited in US9273049B2 (North-West University, priority 2009, dated 2016).

Settings: Class II = high permeability, low solubility

## Cc1ccnc2c1NC(=O)c1cccnc1N2C1CC1 [nevirapine, 11-cyclopropyl1-5,11-dihydro-4-methyl-6H-dipyrido[3,2-b: 2′,3′-e][1,4]diazepin-6-one]
  FDA classification: Class II
